Measurements reported in US6147076A, “Analogues of N-acetylardeemin, method of preparation and uses thereof” (priority 1996, dated 2000).
Several values for one entry are separate records, joined by “and”; a condition that tells them apart may be missing. Equal entries are not always repeated. Where two headings read alike, the source gives them in different places. Numbered stars: 1 amine (or outer) side, 2 acyl side, 3 side chain; on linkers, the order of the positions; unused ones are H or OH. Bridge positions count the residues as written; N and C are the ends. Square brackets hold non-standard residues; d marks the D form. Peptide text beside a SMILES is read from it. I, II: the chains in the order shown. Actinocin(9to1) = Cc1c2oc3c(C)ccc(C(=O)[*:1])c3nc-2c(C(=O)[*:2])c(N)c1=O; NMeV = CN[C@H](C(=O)O)C(C)C; Sar = CNCC(=O)O

Assays:
[1] = test system: CCRF-CEM/VM-1 cells; assay: Cytotoxicity toward VM-26-resistant CCRF-CEM/VM-1 cells (mutated Topo II gene); format: cell-based, human
[2] = test system: CCRF-CEM cells; assay: Intracellular accumulation of [3H]vinblastine in CCRF-CEM cells; format: cell-based, human; conditions: 30 μM
Procedure: (§1) *Cells were preloaded with [^3 H]
(§2) times (or without wash) with 100 ml cold medium to remove extracellular
(§3) with or without a reverse prenyl compound or an MDRreversing agent. Cells
(§4) were then separated from radioactive medium by microfuge oillayer method.
(§5) Extracellular space counts carried down # by cells (^3 HInulin space
(§6) were subtracted from the total radioactive counts.

[3] = test system: CCRF-CEM/VLB-100 cells; assay: Intracellular accumulation of [3H]vinblastine in CCRF-CEM/VLB-100 cells; format: cell-based, human; conditions: 30 μM
Procedure: as §1, §2, §3, §4, §5, §6

[4] = test system: CCRF-CEM/VBL100 cells; assay: cells; conditions: Homo sapiens
[5] = test system: CCRF-CEM cells; assay: Cytotoxicity / growth inhibition of CCRF-CEM leukemic cells
[6] = test system: DC-3F/ADX cells; assay: Cytotoxicity toward DC-3F/ADX cells; format: cell-based, hamster; conditions: for IC50: DC3F/ADX, DC-3F/ADX; for (C)/(A): IC50 ratio DC-3F/ADX to DC-3F, * collaterally sensitive
[7] = test system: DC-3F/ADII cells
[8] = test system: DC-3F/ADII cells; assay: cells; conditions: Mesocricetus auratus, DC3F
[9] = test system: DC-3F hamster lung cells; assay: Cytotoxicity toward DC-3F hamster lung cells
[10] = test system: CCRF-CEM/VBL100 cells
[11] = test system: CCRF-CEM cells
[12] = Homo sapiens, CCRF-CEM, Table 5A, CCRF-CEM/VM-1, read-out: IC50
[13] = Table 5A, CCRF-CEM/VLB, * collaterally sensitive vs parent
[14] = read-out: IC50 of reversing agent, Table 6B, CCRF-CEM/VBL
[15] = Homo sapiens, Table 5A, single determinations
[16] = Homo sapiens, read-out: IC50 of reversing agent, Table 6B, CCRF-CEM
[17] = read-out: IC50, mean ± spread, Table 5A, CCRF-CEM/VLB, mean
[18] = Homo sapiens, read-out: IC50, mean ± spread, Table 5A, CCRF-CEM, mean
[19] = Table 5A, single determinations
[20] = Homo sapiens, Table 6, CCRF-CEM
[21] = Homo sapiens, CCRF-CEM, Table 6B, CCRF-CEM/VM-1, read-out: IC50 of reversing agent
[22] = IC50 ratio DC-3F/ADII to DC-3F, * collaterally sensitive
[23] = Mesocricetus auratus, DC3F, read-out: IC50 (A), mean ± spread, mean of the determinations
[24] = Mesocricetus auratus, DC3F, read-out: IC50 (A), single determinations
[25] = read-out: IC50 (A), single determinations

Compound | IC50 [1, 12] | [3H]vinblastine accumulation ([2]; washed) | [3H]vinblastine accumulation ([2]; without wash) | [3H]vinblastine accumulation ([3]; washed) | [3H]vinblastine accumulation ([3]; without wash) | IC50 [4, 13] | IC50 [4, 14] | IC50 [5, 15] | IC50 [5, 16] | IC50 [4, 17] | IC50 [5, 18] | IC50 [5, 19] | IC50 ([4]; Table 6, CCRF-CEM/VBL) | IC50 [5, 20] | other results
C=CC(C)(C)C12CC3c4nc5ccccc5c(=O)n4C(C)C(=O)N3C1N(C(=O)C(F)(F)F)c1ccccc12 (stereo not drawn) [5N F3 -Ac-Ard 3F, 5N-Tri-F Acetyl Ardeemin] | 52.6 µM | 28.44 fmole/10^3 cells | 34.01 fmole/10^3 cells | 7.28 fmole/10^3 cells | 32.68 fmole/10^3 cells | 17.2 µM | 17.2 µM | 37.5 µM | 37.6 µM | – | – | – | – | – | –
C=CC(C)(C)C12CC3C(=O)NCC(=O)N3C1N(C(C)=O)c1ccccc12 (stereo not drawn) [5N-Ac-8-desMe-DKP, 5N-acetyl diketopiperazine] | – | – | – | – | – | – | – | 21.4 µM | – | 19.9 ± 13 µM | 22.1 ± 0.7 µM | 22.7 µM | – | – | IC50 ([1]; Homo sapiens, CCRF-CEM): 35.8 µM
C=CC(C)(C)C12CC3C(=O)NC(C)C(=O)N3C1N(C(C)=O)c1ccccc12 (stereo not drawn) [5N-Ac-DKP 14(E), N-acetyldiketopiperazine] | 32.4 µM | 29.54 fmole/10^3 cells | 35.08 fmole/10^3 cells | 3.59 fmole/10^3 cells | 12.88 fmole/10^3 cells | – | – | – | – | 344 ± 197 µM | 397 ± 171 µM | – | 541 µM | 225 µM | –
C=CC(C)(C)C12CC3C(=O)NC(C)C(=O)N3C1N(C(=O)C(F)(F)F)c1ccccc12 (stereo not drawn) [5N-F3 -Ac-DKP 14F(E), 5N-trifluoroacetyl diketopiperazine] | 41 µM | 28.75 fmole/10^3 cells | 33.34 fmole/10^3 cells | 5.77 fmole/10^3 cells | 23.34 fmole/10^3 cells | 24.6 µM | 24.8 µM | 32.8 µM | 32.8 µM | – | 32.2 ± 0.7 µM | 31.5 µM | – | – | IC50 [1, 21]: 40.9 µM
C=CC(C)(C)C12CC3C(=O)NCC(=O)N3C1N(C=O)c1ccccc12 (stereo not drawn) [5N-formyl-8-desMe-DKP] | – | – | – | – | – | 372 µM | – | 200 µM | – | – | – | – | – | – | –
C=CC(C)(C)C12CC3c4nc5ccccc5c(=O)n4CC(=O)N3C1Nc1ccccc12 (stereo not drawn) [8-Desmethyl-Ardeemin] | – | – | – | – | – | – | 18.8 µM | – | 14.3 µM | – | – | – | – | – | IC50 [6]: 4.7 µM; (C)/(A) [6]: 0.49 X; IC50 [1, 21]: 18.1 µM; (B)/(A) [7, 22]: 3.5 X; IC50 ([8]; read-out: IC50 (B)): 26.5 µM; IC50 [9, 23]: 9.58 ± 1.29 µM; IC50 [9, 24]: 10.9 µM; IC50 [9, 25]: 8.29 µM
Cc1c2oc3c(C)ccc(C(=O)N[C@@H]4C(=O)N[C@H](C(C)C)C(=O)N5CCC[C@H]5C(=O)N(C)CC(=O)N(C)[C@@H](C(C)C)C(=O)O[C@@H]4C)c3nc-2c(C(=O)N[C@@H]2C(=O)N[C@H](C(C)C)C(=O)N3CCC[C@H]3C(=O)N(C)CC(=O)N(C)[C@@H](C(C)C)C(=O)O[C@@H]2C)c(N)c1=O [Actinomycin D, reference compound] (I: T[dV]P[Sar][NMeV] / II: T[dV]P[Sar][NMeV]; ester I:1-I:C, II:1-II:C; linker I:N-II:N via Actinocin(9to1)) | – | – | – | – | – | – | – | – | – | – | – | – | – | – | (C)/(A), resistance in words [6]: Very Resistant; IC50 [6]: 1.23 µM; (C)/(A) [6]: 4738.5 X; (B)/(A), resistance in words [7]: Resistant; (B)/(A) [7, 22]: 349.6 X; IC50 ([8]; read-out: IC50 (B), DC-3F/ADII): 0.0909 µM; IC50 [9, 23]: 0.00026 ± 5e-05 µM; IC50 [9, 24]: 0.00021 µM; IC50 [9, 25]: 0.00031 µM
C=CC(C)(C)C12CC3C(=O)NCC(=O)N3C1Nc1ccccc12 (stereo not drawn) [Desmethyl-DKP] | – | – | – | – | – | – | – | – | – | – | – | – | – | – | IC50 [6]: 199 µM; (C)/(A) [6]: 1.5 X; (B)/(A) [7]: 1.3 X; IC50 ([8]; read-out: IC50 (B)): 103 µM; IC50 [9, 23]: 131 ± 14.7 µM; IC50 [9, 24]: 116 µM; IC50 [9, 25]: 145 µM
C=CC(C)(C)C12CC3C(=O)NC(C)C(=O)N3C1Nc1ccccc12 (stereo not drawn) [Diketopiperazine 14(B), Diketopiperazine] | – | 28.51 fmole/10^3 cells | 35.84 fmole/10^3 cells | 3.33 fmole/10^3 cells | 10.81 fmole/10^3 cells | – | 135 µM | 143 µM | 143 µM | 94.6 ± 40.8 µM | 132 ± 11.5 µM | – | 147 µM | 148 µM | IC50 ([1]; Homo sapiens, CCRF-CEM): 178 µM; IC50 ([1]; Homo sapiens, CCRF-CEM, read-out: IC50 of reversing agent): 178 µM; IC50 ([5]; Table 5A, single determinations, listed as DKP 14(B)): 120 µM
C=CC(C)(C)C12CC3C(=O)N(C(C)=O)C(C)C(=O)N3C1N(C(C)=O)c1ccccc12 (stereo not drawn) [Imide Di-Ac-DKP Amide 14(D), imide diacetate diketopiperazine] | 81.4 µM | 28.36 fmole/10^3 cells | 34.54 fmole/10^3 cells | 4.01 fmole/10^3 cells | 15.92 fmole/10^3 cells | 51.4 µM | – | 103 µM | – | 54.7 ± 3.3 µM | 83.4 ± 23.4 µM | 64 µM | 37.1 µM | 62.5 µM | IC50 ([1]; Homo sapiens, CCRF-CEM, Table 5A, CCRF-CEM/VM-1, mean, read-out: IC50, mean ± spread): 85.2 ± 4 µM; IC50 ([1]; Table 5A, CCRF-CEM/VM-1, read-out: IC50): 89 µM; IC50 [10, 13]: 58 µM
C=CC(C)(C)C12CC3C(=O)N(C(C)=O)C(C)C(=O)N3C1Nc1ccccc12 (stereo not drawn) [Imide-Ac-DKP 14(A), imide acetate diketopiperazine] | 50 µM | 30.18 fmole/10^3 cells | 34.87 fmole/10^3 cells | 4.52 fmole/10^3 cells | 18.93 fmole/10^3 cells | 39.7 µM | – | 48.1 µM | – | 38 ± 1.8 µM | 61 ± 13.1 µM | 47.9 µM and 87 µM | 39.7 µM | 48.1 µM | IC50 [10, 13]: 36.2 µM
C=CC(C)(C)C12CC3C(=O)N(C(=O)OC(C)(C)C)C(C)C(=O)N3C1Nc1ccccc12 (stereo not drawn) [Imide-BOC-DKP 14(C), imide-BOC diketopiperazine] | 205 µM | 30.29 fmole/10^3 cells | 35.56 fmole/10^3 cells | 6.10 fmole/10^3 cells | 25.44 fmole/10^3 cells | 65.4 µM | – | – | – | 92.9 ± 27.3 µM | 204 ± 116 µM | – | 65.4 µM | 88.7 µM | IC50 [10, 13]: 120 µM
COc1cc(NS(C)(=O)=O)ccc1Nc1c2ccccc2nc2ccccc12 [M-AMSA, reference compound] | – | – | – | – | – | – | – | – | – | – | – | – | – | – | IC50 ([1]; ccrf-cem/vm-1 cells): 2.55 µM; IC50 ([7]; dc-3f/adii cells): 0.032 µM; IC50 [11]: 0.184 µM; IC50 ([10]; ccrf-cem/vbl100 cells): 0.656 µM
